Laboratory results published in patent publication US12122728B2, “Use of substituted 2-thiazolines as nitrification inhibitors” (BASF SE, priority 2018, dated 2024).

Tested on: nitrification
Experiment: Inhibition of nitrification in soil incubation test (ammonium and nitrate content after 14 days)
Conditions: 100 g soil, 10 mg ammoniumsulfate-N, 20° C., 0 and 14 days; for NI* @ 0.3%: compound at 0.3% of nitrogen N; for NI* @ 1%: compound at 1% of nitrogen N; for NI* @ 3%: compound at 3% (of nitrogen N)
Protocol: The compounds of the invention have been tested as follows in terms of the inhibition of nitrification:
100 g soil is filled into 500 ml plastic bottles (e.g. soil sampled from the field) and is moistened to 50% water holding capacity. The soil is incubated at 20° C. for two weeks to activate the microbial biomass. 1 ml test solution, containing the compound in the appropriate concentration (usually 0.3 or 1% of nitrogen N), or DMSO and 10 mg nitrogen in the form of ammoniumsulfate-N is added to the soil and everything mixed well. Bottles are capped but loosely to allow air exchange. The bottles are then incubated at 20° C. for 0 and 14 days.
For analysis, 300 ml of a 1% K2SO4-solution is added to the bottle containing the soil and shaken for 2 hours in a horizontal shaker at 150 rpm. Then the whole solution is filtered through a filter (Macherey-Nagel Filter MN 807%). Ammonium and nitrate content is then analyzed in the filtrate in an autoanalyzer at 550 nm (Merck, AA11).
The inhibition (NI® a specified concentration) is calculated as follows: […]

Row | SMILES | NI* @ 0.3% | NI* @ 1% | NI* @ 3%
1 | CSC1=NCCS1 [Cmpd 1, 2-(Methylthio)-2-thiazoline] | 60.1 | 90.2 | 88
2 | CC#CSC1=NCCS1 [Cmpd 2, 2-(Propynylthio)-2-thiazoline] |  |  | 76.3
3 | SC1=NCCS1 [Cmpd 3, 2-Mercapto-2-thiazoline] |  | 47 | 83.5
4 | CC1(C)CSC(S)=N1 [Cmpd 4, 4,4-Dimethyl-2-mercaptothiazoline] |  |  | 57.5
5 | O=C(Nc1ccccc1)SC1=NCCS1 [Cmpd 5, 2-(Phenylaminocarbonylthio)-2-thiazoline] |  |  | 55
6 | Br.O=C(CSC1=NCCS1)c1ccccc1 [Cmpd 6, 2-(2-Thiazolin-2-ylthio)-acetophenone, hydrobromide] | 21 | 31 | 53.9
7 | Cc1cc(Cl)ccc1SC1=NCCS1 [Cmpd. 7, 2-(4-Chloro-2-methylphenylthio)-2-thiazoline] |  | 25.7 | 48.8
8 | CCNC(=O)SC1=NCCS1 [Cmpd. 8, 2-(Ethylaminocarbonylthio)-2-thiazoline] |  |  | 43.1
9 | CCSC1=NCCS1 [Cmpd. 9, 2-(Ethylthio)-2-thiazoline] |  | 22 | 
10 | COC(=O)CSC1=NCCS1 [Cmpd. 10, (2-Thiazolin-2-ylthio)-acetic acid, methyl ester] |  | 21.5 | 
11 | CN(C)C(=S)SC1NCCS1 (stereo not drawn) [Cmpd. 11, 4,5-dihydro-3H-thiazol-2-yl N,N-dimethylcarbamodithioate] |  | 31.2 | 58.4
